Source: publication PMC8550792, “Evolution of kinase polypharmacology across HSP90 drug discovery” (Cell Chemical Biology, 2021)

Legend:
382 unique human kinases [1] = target: T1, 382 unique human kinases (Homo sapiens, UniProt O60674, V617F); test: biochemical; type: biochemical; conditions: kinase JAK2 (V617F), compound 10 uM; for remaining activity at 10 µM: read-out: % Enzyme Activity (relative to DMSO controls)
T1 construct: purchased Reaction Biology (HotSpot contract assay)

382 unique human kinases [2] = target: T2, 382 unique human kinases (Homo sapiens, UniProt P22455); test: biochemical; type: biochemical; conditions: FGFR4, 10 uM; for remaining activity at 10 µM: read-out: % Enzyme Activity (relative to DMSO controls)
T2 construct: purchased Reaction Biology (HotSpot contract assay)

382 unique human kinases [3] = target: T3, 382 unique human kinases (Homo sapiens, UniProt P22607); test: biochemical; type: biochemical; conditions: FGFR3, 10 uM; for remaining activity at 10 µM: read-out: % Enzyme Activity (relative to DMSO controls)
T3 construct: purchased Reaction Biology (HotSpot contract assay)
T3 sequence (P22607 23-806): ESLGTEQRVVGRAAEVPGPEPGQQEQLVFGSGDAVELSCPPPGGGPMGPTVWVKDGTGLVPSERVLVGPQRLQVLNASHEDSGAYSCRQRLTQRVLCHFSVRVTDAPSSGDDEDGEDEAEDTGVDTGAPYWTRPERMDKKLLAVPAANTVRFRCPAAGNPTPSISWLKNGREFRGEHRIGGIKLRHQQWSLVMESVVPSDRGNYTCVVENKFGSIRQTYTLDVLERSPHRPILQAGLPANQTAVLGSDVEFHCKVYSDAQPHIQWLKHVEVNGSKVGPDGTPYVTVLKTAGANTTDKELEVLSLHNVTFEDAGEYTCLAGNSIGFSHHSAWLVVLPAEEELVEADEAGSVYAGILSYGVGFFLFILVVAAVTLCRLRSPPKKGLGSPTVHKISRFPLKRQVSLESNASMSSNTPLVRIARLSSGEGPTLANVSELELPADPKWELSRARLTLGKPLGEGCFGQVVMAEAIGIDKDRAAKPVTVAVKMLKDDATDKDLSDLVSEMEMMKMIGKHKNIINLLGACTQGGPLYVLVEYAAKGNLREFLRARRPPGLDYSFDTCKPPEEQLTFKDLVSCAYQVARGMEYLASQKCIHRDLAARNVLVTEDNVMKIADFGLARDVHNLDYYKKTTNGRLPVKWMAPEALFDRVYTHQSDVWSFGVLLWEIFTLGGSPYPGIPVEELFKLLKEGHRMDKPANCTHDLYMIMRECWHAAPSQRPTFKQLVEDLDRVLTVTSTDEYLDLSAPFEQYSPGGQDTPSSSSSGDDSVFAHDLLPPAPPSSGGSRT

382 unique human kinases [4] = target: T4, 382 unique human kinases (Homo sapiens, UniProt Q6P2M8); test: biochemical; type: biochemical; conditions: kinase CAMK1b, compound 10 uM; for remaining activity at 10 µM: read-out: % Enzyme Activity (relative to DMSO controls)
T4 construct: purchased Reaction Biology (HotSpot contract assay)
T4 sequence (Q6P2M8 whole entry): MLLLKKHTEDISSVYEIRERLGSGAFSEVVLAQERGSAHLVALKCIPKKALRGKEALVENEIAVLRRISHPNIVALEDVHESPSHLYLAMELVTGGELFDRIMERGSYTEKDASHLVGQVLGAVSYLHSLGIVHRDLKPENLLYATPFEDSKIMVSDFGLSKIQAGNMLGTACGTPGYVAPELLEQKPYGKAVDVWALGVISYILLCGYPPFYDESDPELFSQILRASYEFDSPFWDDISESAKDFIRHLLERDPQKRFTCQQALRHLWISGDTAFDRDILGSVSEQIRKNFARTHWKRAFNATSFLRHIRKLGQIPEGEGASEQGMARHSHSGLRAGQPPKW

382 unique human kinases [5] = target: T5, 382 unique human kinases (Homo sapiens, UniProt Q6DT37); test: biochemical; type: biochemical; conditions: DMPK2, 10 uM; for remaining activity at 10 µM: read-out: % Enzyme Activity (relative to DMSO controls)
T5 construct: purchased Reaction Biology (HotSpot contract assay)

382 unique human kinases [6] = target: T6, 382 unique human kinases (Homo sapiens, UniProt Q13470); test: biochemical; type: biochemical; conditions: TNK1, 10 uM; for remaining activity at 10 µM: read-out: % Enzyme Activity (relative to DMSO controls)
T6 construct: purchased Reaction Biology (HotSpot contract assay)
T6 sequence (Q13470 1-666): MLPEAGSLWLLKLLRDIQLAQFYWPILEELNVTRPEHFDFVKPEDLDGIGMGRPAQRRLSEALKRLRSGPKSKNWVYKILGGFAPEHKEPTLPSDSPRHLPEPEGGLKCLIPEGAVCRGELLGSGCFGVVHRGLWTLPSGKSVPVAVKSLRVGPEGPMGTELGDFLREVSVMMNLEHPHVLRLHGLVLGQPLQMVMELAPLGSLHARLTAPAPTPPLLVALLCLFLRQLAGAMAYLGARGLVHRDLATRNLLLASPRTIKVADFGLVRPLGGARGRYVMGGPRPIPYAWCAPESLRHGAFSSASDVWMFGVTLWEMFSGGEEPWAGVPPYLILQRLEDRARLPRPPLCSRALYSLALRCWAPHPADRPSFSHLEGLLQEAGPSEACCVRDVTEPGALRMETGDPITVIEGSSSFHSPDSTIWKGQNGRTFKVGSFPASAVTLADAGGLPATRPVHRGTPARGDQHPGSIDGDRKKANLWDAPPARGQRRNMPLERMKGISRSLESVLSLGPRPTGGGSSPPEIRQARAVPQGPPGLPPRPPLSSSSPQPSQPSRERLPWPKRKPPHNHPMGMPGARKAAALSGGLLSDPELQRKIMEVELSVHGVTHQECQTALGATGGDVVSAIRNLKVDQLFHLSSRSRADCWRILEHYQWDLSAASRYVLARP

382 unique human kinases [7] = target: T7, 382 unique human kinases (Homo sapiens, UniProt P36894); test: biochemical; type: biochemical; conditions: ALK3/BMPR1A, 10 uM; for remaining activity at 10 µM: read-out: % Enzyme Activity (relative to DMSO controls)
T7 construct: purchased Reaction Biology (HotSpot contract assay)
T7 sequence (P36894 24-532): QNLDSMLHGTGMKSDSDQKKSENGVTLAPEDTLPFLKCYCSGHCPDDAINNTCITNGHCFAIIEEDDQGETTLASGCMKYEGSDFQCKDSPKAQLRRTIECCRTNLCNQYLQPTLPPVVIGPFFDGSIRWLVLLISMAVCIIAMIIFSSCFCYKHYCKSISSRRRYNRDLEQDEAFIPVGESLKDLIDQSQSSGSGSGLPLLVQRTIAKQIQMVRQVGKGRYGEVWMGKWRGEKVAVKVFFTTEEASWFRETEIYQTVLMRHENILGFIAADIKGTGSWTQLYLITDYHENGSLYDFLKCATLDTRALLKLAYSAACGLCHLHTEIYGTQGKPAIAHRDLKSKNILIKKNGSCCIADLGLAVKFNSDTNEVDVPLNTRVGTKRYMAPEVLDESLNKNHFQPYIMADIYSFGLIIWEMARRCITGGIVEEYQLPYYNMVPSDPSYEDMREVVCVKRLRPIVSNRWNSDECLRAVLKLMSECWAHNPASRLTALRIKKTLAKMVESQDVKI

382 unique human kinases [8] = target: T8, 382 unique human kinases (Homo sapiens, UniProt O43293); test: biochemical; type: biochemical; conditions: kinase ZIPK/DAPK3, compound 10 uM; for remaining activity at 10 µM: read-out: % Enzyme Activity (relative to DMSO controls)
T8 construct: purchased Reaction Biology (HotSpot contract assay)
T8 sequence (O43293 whole entry): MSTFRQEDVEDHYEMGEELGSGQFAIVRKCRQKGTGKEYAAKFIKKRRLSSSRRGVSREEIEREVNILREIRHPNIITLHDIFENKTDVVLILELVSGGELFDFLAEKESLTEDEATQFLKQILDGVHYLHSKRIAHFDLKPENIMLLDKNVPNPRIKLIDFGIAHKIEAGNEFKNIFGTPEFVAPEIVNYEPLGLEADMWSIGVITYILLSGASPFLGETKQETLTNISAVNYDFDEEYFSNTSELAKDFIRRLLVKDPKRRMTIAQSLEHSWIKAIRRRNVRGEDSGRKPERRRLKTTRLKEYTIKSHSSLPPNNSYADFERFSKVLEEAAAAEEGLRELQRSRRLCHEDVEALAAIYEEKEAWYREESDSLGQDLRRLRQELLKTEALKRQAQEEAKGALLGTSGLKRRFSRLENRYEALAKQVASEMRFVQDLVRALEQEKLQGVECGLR

TRAP1 = tested on: TRAP1; design: method as in ChEMBL23 (accessed: 23/08/2018); conditions: average of reported values; ref ChEMBL23 (accessed: 23/08/2018); cited from earlier work
382 unique human kinases [9] = target: T9, 382 unique human kinases (Homo sapiens, UniProt P36888, D835Y); test: biochemical; type: biochemical; conditions: FLT3 (D835Y), [ATP] 20 µM, compound 10 uM; for remaining activity at 10 µM: read-out: % Enzyme Activity (relative to DMSO controls)
T9 construct: purchased Reaction Biology (HotSpot contract assay)
T9 sequence (P36888 27-993 D835Y): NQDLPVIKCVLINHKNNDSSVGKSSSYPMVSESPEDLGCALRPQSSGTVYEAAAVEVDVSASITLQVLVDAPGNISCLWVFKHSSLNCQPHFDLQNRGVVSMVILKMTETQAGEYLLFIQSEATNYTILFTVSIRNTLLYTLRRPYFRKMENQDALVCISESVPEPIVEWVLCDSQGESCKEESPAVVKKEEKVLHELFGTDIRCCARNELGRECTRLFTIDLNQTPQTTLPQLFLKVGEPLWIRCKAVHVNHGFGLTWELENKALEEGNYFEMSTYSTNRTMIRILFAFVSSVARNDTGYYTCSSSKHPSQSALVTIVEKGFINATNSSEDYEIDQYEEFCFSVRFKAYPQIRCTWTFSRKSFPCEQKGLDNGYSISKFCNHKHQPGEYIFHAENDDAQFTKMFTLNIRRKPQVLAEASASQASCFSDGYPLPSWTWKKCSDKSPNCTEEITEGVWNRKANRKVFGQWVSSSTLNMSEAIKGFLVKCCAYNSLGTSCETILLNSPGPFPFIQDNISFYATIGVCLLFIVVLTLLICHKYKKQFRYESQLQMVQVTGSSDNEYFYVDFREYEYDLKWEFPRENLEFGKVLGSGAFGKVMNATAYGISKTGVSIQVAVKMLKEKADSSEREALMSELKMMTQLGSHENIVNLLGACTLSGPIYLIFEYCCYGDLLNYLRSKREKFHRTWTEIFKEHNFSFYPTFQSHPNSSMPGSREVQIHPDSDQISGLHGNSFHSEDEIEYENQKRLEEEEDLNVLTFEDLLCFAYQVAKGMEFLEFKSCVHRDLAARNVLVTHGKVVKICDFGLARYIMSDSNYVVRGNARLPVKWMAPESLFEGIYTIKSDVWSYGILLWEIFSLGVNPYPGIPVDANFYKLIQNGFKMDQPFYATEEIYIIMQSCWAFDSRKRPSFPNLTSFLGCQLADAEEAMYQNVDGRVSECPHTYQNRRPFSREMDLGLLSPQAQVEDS

382 unique human kinases [10] = target: T10, 382 unique human kinases (Homo sapiens, UniProt Q9P1W9); test: biochemical; type: biochemical; conditions: PIM2, [ATP] 20 µM, compound 10 uM; for remaining activity at 10 µM: read-out: % Enzyme Activity (relative to DMSO controls)
T10 construct: purchased Reaction Biology (HotSpot contract assay)
T10 sequence (Q9P1W9 whole entry): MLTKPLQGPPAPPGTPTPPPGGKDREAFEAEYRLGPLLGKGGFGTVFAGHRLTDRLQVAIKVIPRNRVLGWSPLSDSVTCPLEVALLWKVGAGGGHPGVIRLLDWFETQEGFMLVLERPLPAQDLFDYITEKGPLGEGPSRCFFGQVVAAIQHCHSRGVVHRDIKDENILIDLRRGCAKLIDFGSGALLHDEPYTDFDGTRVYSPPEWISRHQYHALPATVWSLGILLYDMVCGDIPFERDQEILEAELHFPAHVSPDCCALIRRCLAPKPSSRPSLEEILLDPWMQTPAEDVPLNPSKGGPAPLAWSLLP

382 unique human kinases [11] = target: T11, 382 unique human kinases (Homo sapiens, UniProt P10721, D816H); test: biochemical; type: biochemical; conditions: c-Kit (D816H), [ATP] 5 µM, compound 10 uM; for remaining activity at 10 µM: read-out: % Enzyme Activity (relative to DMSO controls)
T11 construct: purchased Reaction Biology (HotSpot contract assay)

382 unique human kinases [12] = target: T12, 382 unique human kinases (Homo sapiens, UniProt Q13153); test: biochemical; type: biochemical; conditions: PAK1, 10 uM; for remaining activity at 10 µM: read-out: % Enzyme Activity (relative to DMSO controls)
T12 construct: purchased Reaction Biology (HotSpot contract assay)
T12 sequence (Q13153 whole entry): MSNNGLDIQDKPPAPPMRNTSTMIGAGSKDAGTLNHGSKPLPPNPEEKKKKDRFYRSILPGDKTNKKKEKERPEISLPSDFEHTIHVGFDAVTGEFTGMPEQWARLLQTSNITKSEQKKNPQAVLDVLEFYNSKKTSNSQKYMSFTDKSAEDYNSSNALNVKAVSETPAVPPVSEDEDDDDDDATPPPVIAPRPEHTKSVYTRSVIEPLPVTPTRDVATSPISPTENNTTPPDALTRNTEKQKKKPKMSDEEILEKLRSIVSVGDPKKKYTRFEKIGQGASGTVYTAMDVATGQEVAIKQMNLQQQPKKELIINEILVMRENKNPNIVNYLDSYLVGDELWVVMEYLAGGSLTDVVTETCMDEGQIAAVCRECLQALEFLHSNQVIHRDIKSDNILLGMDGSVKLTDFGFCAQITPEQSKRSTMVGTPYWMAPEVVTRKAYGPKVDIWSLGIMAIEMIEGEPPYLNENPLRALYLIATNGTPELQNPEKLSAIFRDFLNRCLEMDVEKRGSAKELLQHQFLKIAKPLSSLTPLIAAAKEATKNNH

382 unique human kinases [13] = target: T13, 382 unique human kinases (Homo sapiens, UniProt P00533, DEL752-759); test: biochemical; type: biochemical; conditions: EGFR (d752-759), 10 uM; for remaining activity at 10 µM: read-out: % Enzyme Activity (relative to DMSO controls)
T13 construct: purchased Reaction Biology (HotSpot contract assay)

FGR = target: T14, FGR (Homo sapiens, UniProt P09769); test: HotSpot in vitro kinase radiometric assay; type: biochemical; conditions: for inhibition at 10 µM: read-out: % inhibition at 10 uM: FGR, Fig 6C median ± standard deviation (n = 2)
T14 construct: purchased Reaction Biology (HotSpot contract assay)
T14 sequence (P09769 whole entry): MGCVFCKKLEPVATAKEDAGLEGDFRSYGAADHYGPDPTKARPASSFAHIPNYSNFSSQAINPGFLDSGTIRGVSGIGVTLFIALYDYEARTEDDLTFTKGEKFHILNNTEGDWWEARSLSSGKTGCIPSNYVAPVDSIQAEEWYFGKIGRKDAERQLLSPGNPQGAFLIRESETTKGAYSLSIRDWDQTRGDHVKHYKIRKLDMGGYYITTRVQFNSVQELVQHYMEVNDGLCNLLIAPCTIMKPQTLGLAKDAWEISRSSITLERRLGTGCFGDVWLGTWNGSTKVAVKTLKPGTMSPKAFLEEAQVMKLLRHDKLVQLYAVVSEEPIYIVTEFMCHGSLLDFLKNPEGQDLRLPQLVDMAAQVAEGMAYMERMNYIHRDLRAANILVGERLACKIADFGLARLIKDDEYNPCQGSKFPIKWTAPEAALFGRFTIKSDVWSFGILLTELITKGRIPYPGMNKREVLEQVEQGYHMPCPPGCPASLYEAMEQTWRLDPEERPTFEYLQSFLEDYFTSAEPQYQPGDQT

T1 sequence (O60674 whole entry V617F): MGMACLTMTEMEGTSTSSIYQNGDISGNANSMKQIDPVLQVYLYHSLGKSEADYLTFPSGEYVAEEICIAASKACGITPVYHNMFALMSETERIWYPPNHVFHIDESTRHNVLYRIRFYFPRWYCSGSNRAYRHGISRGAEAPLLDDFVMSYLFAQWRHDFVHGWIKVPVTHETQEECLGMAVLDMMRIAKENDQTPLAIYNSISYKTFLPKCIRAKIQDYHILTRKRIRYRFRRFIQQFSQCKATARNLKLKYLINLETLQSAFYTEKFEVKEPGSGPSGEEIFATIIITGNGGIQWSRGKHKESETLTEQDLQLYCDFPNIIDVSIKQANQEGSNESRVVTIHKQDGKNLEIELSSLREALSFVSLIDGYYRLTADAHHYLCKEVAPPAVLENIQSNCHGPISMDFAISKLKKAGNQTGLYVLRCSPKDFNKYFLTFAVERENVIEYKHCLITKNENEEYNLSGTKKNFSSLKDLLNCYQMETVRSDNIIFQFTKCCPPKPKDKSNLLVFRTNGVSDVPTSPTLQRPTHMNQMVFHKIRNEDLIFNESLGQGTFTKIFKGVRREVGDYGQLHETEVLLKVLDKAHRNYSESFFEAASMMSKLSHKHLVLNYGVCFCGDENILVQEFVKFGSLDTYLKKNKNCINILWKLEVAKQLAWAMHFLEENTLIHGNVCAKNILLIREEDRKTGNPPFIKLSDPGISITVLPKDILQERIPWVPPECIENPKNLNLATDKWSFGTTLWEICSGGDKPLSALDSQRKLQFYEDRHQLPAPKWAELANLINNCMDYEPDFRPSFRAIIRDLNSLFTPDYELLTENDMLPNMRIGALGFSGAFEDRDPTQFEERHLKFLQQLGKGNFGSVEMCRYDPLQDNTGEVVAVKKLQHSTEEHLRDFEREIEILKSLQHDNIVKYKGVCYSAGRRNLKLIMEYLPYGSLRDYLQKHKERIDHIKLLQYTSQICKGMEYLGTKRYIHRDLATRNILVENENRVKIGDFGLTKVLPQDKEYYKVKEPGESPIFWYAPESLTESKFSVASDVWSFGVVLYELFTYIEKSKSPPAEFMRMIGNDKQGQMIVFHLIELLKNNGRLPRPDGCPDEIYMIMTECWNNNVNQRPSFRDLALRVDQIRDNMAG

| SMILES | remaining activity at 10 µM (382 unique human kinases [1]) | remaining activity at 10 µM (382 unique human kinases [2]) | remaining activity at 10 µM (382 unique human kinases [3]) | remaining activity at 10 µM (382 unique human kinases [4]) | remaining activity at 10 µM (382 unique human kinases [5]) | remaining activity at 10 µM (382 unique human kinases [6]) | remaining activity at 10 µM (382 unique human kinases [7]) | remaining activity at 10 µM (382 unique human kinases [8]) | pActivity, TRAP1 (TRAP1) | remaining activity at 10 µM (382 unique human kinases [9]) | remaining activity at 10 µM (382 unique human kinases [10]) | remaining activity at 10 µM (382 unique human kinases [11]) | remaining activity at 10 µM (382 unique human kinases [12]) | remaining activity at 10 µM (382 unique human kinases [13]) | inhibition at 10 µM (FGR) | also measured |
| --- | --- | --- | --- | --- | --- | --- | --- | --- | --- | --- | --- | --- | --- | --- | --- | --- |
| CC(C)c1cc(-c2n[nH]c(=O)n2-c2ccc3c(ccn3C)c2)c(O)cc1O [Ganetespib (STA9090)] | 83.1% | 71.5% | 62.6% | 83.4% | 75.6% | 65.8% | 59.1% | 89.8% | – | – | – | – | – | – | – | – |
| CC(C)c1cc(-c2n[nH]c(=O)n2-c2ccc3c(ccn3C)c2)c(O)cc1O [Ganetespib] | – | – | – | – | – | – | – | – | 7.29 | 18.6% | 28.8% | 46.4% | 97.2% | 103% | – | – |
| CCNC(=O)c1noc(-c2cc(C(C)C)c(O)cc2O)c1-c1ccc(CN2CCOCC2)cc1 [Luminespib (AUY-922)] | 91.7% | 97.1% | 97.2% | 94.9% | 114% | 97.5% | 100% | 98.6% | – | – | – | – | – | – | – | % Enzyme Activity (relative to DMSO controls) (382 unique human kinases [1]): 91.38%; % Enzyme Activity (relative to DMSO controls) (382 unique human kinases [2]): 96.06%; % Enzyme Activity (relative to DMSO controls) (382 unique human kinases [3]): 96.41%; % Enzyme Activity (relative to DMSO controls) (382 unique human kinases [4]): 91.57%; % Enzyme Activity (relative to DMSO controls) (382 unique human kinases [5]): 113.14%; % Enzyme Activity (relative to DMSO controls) (382 unique human kinases [6]): 96.12%; % Enzyme Activity (relative to DMSO controls) (382 unique human kinases [7]): 99.39%; % Enzyme Activity (relative to DMSO controls) (382 unique human kinases [8]): 97.96% |
| CCNC(=O)c1noc(-c2cc(C(C)C)c(O)cc2O)c1-c1ccc(CN2CCOCC2)cc1 [Luminespib] | – | – | – | – | – | – | – | – | 7.67 | 78.6% | 106% | 84.3% | 102% | 99.4% | 66 ± 1% | % Enzyme Activity (relative to DMSO controls) (382 unique human kinases [9]): 78.51%; % Enzyme Activity (relative to DMSO controls) (382 unique human kinases [10]): 103.60%; % Enzyme Activity (relative to DMSO controls) (382 unique human kinases [11]): 83.99%; % Enzyme Activity (relative to DMSO controls) (382 unique human kinases [12]): 101.44%; % Enzyme Activity (relative to DMSO controls) (382 unique human kinases [13]): 98.01% |
| CCNC(=O)c1noc(-c2cc(Cl)c(O)cc2O)c1-c1ccc(OC)cc1 [VER-50589] | – | – | – | – | – | – | – | – | – | – | – | – | – | – | -7 ± 4% | % Enzyme Activity (relative to DMSO controls) (FGR; FGR, 10uM, ATP 50 uM, Data 1, Data 2): 109.55%; remaining activity at 10 µM (FGR; FGR, 10uM, ATP 50 uM, Data 1, Data 2, read-out: % Enzyme Activity (relative to DMSO controls)): 104% |
